Common to all, as to format: ADME
The target of data set [1] is T1, UDP-glucuronosyltransferase 1A1 (Homo sapiens, UniProt P22309).
T1 sequence (P22309 whole entry): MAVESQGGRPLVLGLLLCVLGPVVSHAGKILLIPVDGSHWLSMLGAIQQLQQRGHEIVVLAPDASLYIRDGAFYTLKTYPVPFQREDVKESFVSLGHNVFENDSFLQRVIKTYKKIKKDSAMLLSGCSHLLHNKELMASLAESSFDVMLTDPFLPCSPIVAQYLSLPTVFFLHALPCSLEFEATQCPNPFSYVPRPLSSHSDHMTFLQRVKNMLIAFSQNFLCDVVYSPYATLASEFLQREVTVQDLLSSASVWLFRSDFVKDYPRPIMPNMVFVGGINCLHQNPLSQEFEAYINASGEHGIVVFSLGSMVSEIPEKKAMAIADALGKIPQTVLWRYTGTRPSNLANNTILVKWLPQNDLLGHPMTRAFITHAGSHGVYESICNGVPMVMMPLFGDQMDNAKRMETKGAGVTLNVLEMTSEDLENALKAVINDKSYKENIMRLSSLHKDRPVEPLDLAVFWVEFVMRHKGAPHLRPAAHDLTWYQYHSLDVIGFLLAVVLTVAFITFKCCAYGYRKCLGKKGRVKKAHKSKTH
In words: Activity of human recombinant UGT1A1 assessed as intrinsic clearance incubated for 5 mins prior to UDPGA addition measured after 90 mins. The note with it: recombinant enzyme, 1.5 h.

Data set [2] deals with Liver microsome. In words: Intrinsic clearance in Sprague-Dawley rat liver microsomes incubated for 5 mins prior to UDPGA addition measured after 90 mins. To be noted: 1.5 h.
Data set [3] has as its system Liver microsome. In words: Drug metabolism in Sprague-Dawley rat liver microsomes assessed as IRI-O-5-monoglucuronide formation incubated for 5 mins prior to UDPGA addition measured after 90 mins by Eadie-Hoftsee plot analysis. The note with it: 1.5 h.
Data set [4] deals with T1, UDP-glucuronosyltransferase 1A1. In words: Substrate inhibition of human recombinant UGT1A1 assessed as IRI-O-5-monoglucuronide formation incubated for 5 mins prior to UDPGA addition measured after 90 mins by Eadie-Hoftsee plot analysis.
Data set [5] deals with T2, UDP-glucuronosyltransferase 1A7 (Homo sapiens, UniProt Q9HAW7).
T2 sequence (Q9HAW7 whole entry): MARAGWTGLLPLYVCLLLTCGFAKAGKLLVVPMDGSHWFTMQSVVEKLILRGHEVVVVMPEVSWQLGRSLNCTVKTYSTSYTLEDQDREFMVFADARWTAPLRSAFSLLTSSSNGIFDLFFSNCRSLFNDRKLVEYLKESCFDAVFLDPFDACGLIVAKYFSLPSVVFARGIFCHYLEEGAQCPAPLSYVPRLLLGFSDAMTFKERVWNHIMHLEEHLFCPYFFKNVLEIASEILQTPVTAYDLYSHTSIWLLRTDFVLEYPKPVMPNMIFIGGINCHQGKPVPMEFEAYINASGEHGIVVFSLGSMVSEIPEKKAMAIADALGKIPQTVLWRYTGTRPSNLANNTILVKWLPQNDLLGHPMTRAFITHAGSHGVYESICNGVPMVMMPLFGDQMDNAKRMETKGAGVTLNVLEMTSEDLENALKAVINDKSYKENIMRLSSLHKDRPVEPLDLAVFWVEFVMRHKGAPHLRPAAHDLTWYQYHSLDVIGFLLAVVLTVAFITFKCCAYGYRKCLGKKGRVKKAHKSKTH
Put plainly: Substrate inhibition of human recombinant UGT1A7 assessed as IRI-O-5-monoglucuronide formation incubated for 5 mins prior to UDPGA addition measured after 90 mins by Eadie-Hoftsee plot analysis.

In data set [6] the target is T3, UDP-glucuronosyltransferase 1A9 (Homo sapiens, UniProt O60656).
T3 sequence (O60656 whole entry): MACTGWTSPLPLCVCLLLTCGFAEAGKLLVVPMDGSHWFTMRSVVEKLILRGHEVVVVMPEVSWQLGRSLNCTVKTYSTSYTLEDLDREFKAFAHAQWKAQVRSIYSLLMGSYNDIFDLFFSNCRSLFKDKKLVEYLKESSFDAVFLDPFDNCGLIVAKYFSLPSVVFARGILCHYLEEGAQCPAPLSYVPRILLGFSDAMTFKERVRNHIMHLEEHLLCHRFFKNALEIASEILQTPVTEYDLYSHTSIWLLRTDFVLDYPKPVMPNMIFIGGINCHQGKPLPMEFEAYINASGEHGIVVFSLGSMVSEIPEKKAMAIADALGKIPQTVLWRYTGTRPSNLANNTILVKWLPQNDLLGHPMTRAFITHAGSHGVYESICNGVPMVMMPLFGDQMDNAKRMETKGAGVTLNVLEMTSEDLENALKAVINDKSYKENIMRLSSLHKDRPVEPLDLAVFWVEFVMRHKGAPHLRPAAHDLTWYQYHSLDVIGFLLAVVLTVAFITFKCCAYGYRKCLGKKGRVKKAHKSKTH
Put plainly: Substrate inhibition of human recombinant UGT1A9 assessed as IRI-O-5-monoglucuronide formation incubated for 5 mins prior to UDPGA addition measured after 90 mins by Eadie-Hoftsee plot analysis.

Data set [7] has as its target Liver microsome. In words: Drug metabolism in human liver microsomes assessed as substrate inhibition of IRI-O-5-monoglucuronide formation incubated for 5 mins prior to UDPGA addition measured after 90 mins by Eadie-Hoftsee plot analysis. In general terms: Microsomes from liver hold many membrane-bound enzymes, among them those of drug oxidation.
Data set [8] addresses Liver microsome. In words: Drug metabolism in Sprague-Dawley rat liver microsomes assessed as substrate inhibition of IRI-O-5-monoglucuronide formation incubated for 5 mins prior to UDPGA addition measured after 90 mins by Eadie-Hoftsee plot analysis.
Data set [9] concerns Liver microsome. Put plainly: Drug metabolism in Sprague-Dawley rat liver microsomes assessed as IRI-O-4'-monoglucuronide formation incubated for 5 mins prior to UDPGA addition measured after 90 mins by Eadie-Hoftsee plot analysis. The note with it: 1.5 h.
Data set [10] deals with T3, UDP-glucuronosyltransferase 1A9. In words: Drug metabolism assessed as human recombinant UGT1A9-mediated irilone-O-5-monoglucuronide formation incubated for 5 mins prior to UDPGA addition measured after 90 mins by HPLC-DAD analysis. To be noted: recombinant enzyme, 1.5 h.
Data set [11] has as its target T4, UDP-glucuronosyltransferase 1A8 (Homo sapiens, UniProt Q9HAW9).
T4 sequence (Q9HAW9 whole entry): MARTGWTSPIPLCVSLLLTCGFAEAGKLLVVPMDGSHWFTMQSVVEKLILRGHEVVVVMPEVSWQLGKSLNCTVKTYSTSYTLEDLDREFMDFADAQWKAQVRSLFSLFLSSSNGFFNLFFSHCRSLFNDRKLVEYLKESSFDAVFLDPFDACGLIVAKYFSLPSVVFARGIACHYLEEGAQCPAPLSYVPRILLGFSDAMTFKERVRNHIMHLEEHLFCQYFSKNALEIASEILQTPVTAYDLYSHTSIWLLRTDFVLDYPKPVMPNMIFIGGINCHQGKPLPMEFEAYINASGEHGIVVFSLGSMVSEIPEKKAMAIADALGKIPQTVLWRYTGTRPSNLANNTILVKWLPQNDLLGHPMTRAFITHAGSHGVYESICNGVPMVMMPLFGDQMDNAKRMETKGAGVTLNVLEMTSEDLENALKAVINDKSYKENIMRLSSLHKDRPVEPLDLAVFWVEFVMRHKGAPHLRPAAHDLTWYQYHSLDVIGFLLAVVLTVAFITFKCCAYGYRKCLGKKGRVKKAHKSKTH
In words: Drug metabolism assessed as human recombinant UGT1A8-mediated irilone-O-4'-monoglucuronide formation at 25 uM incubated for 5 mins prior to UDPGA addition measured after 90 mins by HPLC-DAD analysis. The note with it: recombinant enzyme, 1.5 h.

Take `O=c1c(-c2ccc(O)cc2)coc2cc3c(c(O)c12)OCO3`: the CL in data set [1] amounted to 27.2 mL/mg/min. Besides, the CLH in data set [2] amounted to 51 mL/mg/min. For the same compound, the Km (usually the concentration of substrate that gives half-maximal velocity) was found to be 34 µM in data set [3] and 124 µM in [9]. The Vmax – broadly, the rate approached at saturating substrate – in data set [3] was found to be 1.37 nmol/mg/min; in [9], 1.33 nmol/mg/min. In addition, the Ki in data set [4] was 8.5 µM; in data set [5] it was 101 µM; in data set [6] it was 534 µM; in data set [7] it was 96.9 µM; in data set [8], 65.3 µM. Moreover, the Drug metabolism result in data set [10] and in data set [11] was “metabolite_detected” each time.
